Assay results taken from patent publication US12496350B2 (Ohio State Innovation Foundation, priority 2018, dated 2025).
Like-named read-outs stand apart in the source and are kept apart here. Where a SMILES comes first, the peptide text is derived from it. [ ]: non-standard residue; d: D form. The star is where a group is joined. X1 = O=C(O)c1cc(NC(=S)*)ccc1C1c2ccc(O)cc2Oc2cc(O)ccc21; 2Nal = N[C@@H](Cc1ccc2ccccc2c1)C(=O)O; Bta = N[C@@H](Cc1csc2ccccc12)C(=O)O; Pen = CC(C)(S)[C@H](N)C(=O)O; Tle = CC(C)(C)[C@H](N)C(=O)O; Pip = O=C(O)[C@@H]1CCCCN1; AEEA = NCCOCCOCC(=O)O

Columns and labels:
[1] = biological target: T1, CAL PDZ domain (CALP5-His) (Homo sapiens, UniProt Q9HD26); assay: Direct fluorescence polarization binding of labeled peptide, Condition C
T1 construct: His
Experimental: Condition C (denoted with superscript ^C): 50 nM labeled peptide was incubated with 2 mM TCEP in PBS at pH 7.4 containing 0.01% Triton-X100. CALP5-His was serially diluted in PBS containing 0.01% Triton-X100 to which was then added the peptide and TCEP solution. This solution was mixed for 1 h at RT then 20 uL was pipetted into 384-well microplates and fluorescence polarization was measured using a TECAN Infinite M1000 plate reader. KD values were calculated using KaleidaGraph v. 3.6 using the equation: […]
(§1) Binding Affinity and Selectivity. The potency and selectivity of inhibitor 29 was first assessed by comparing its binding affinity to the four PDZ domains of CAL, NHERF1, and NHERF2, which are involved in the trafficking of CFTR to and from the plasma membrane. Peptides were labeled with FITC at the N-terminus through a miniPEG linker and tested for binding to various PDZ domains by fluorescence polarization (FP). FITC-labeled peptide (50 nM) was incubated with varying concentrations of PDZ domain in PBS (pH 7.4) containing 0.01% Triton X-100 and 2 mM TCEP for 1 h at room temperature. After 1 h, 20 μL of each sample was pipetted into 384-well black-on-black microplates and fluorescence polarization was measured by using a TECAN Infinite M1000 plate reader. Data was processed using GraphPad PRISM ver. 8.0.

[2] = biological target: T2, NHERF2-PDZ1 (N2P1) (Homo sapiens, UniProt Q15599); assay: Direct fluorescence polarization binding of FITC-labeled peptide; conditions: 50 nM FITC-labeled peptide, FP
T2 construct: PDZ1 (N2P1), and NHERF2-PDZ2 domains (N2P2)
T2 sequence (Q15599 11-90 limits assumed): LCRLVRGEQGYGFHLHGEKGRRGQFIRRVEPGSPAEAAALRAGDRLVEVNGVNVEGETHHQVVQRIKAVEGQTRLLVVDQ
Experimental: as §1

[3] = biological target: T3, NHERF1-PDZ1 (N1P1) (Homo sapiens, UniProt O14745); assay: as above
T3 sequence (O14745 14-94 limits assumed): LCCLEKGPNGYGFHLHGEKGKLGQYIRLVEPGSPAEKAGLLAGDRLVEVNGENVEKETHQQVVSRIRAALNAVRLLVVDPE
Experimental: as §1

[4] = biological target: T4, NHERF2-PDZ2 (N2P2) (Homo sapiens, UniProt Q15599); assay: as above; conditions: 50 nM FITC-labeled peptide, FP
T4 construct: PDZ1 (N2P1), and NHERF2-PDZ2 domains (N2P2)
T4 sequence (Q15599 150-230 limits assumed): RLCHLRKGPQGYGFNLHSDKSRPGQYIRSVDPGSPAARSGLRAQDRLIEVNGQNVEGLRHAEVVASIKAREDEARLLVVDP
Experimental: as §1

[5] = biological target: T1, CAL PDZ domain (CALP5-His); assay: FP-based competition assay, Condition B (probe FAM-[…]-OH); type: binding; conditions: for IC50: 500 nM CALP5-His, 5 mM DTT
Experimental: Serial dilutions of each competitor peptide were prepared in PBS and the incubation solution was added to each. The combined solutions were gently mixed for 1 h at RT after which 20 uL sample was pipetted into 384-well black-on-black microplates and fluorescence polarization was measured using a TECAN Infinite M1000 plate reader. Data was processed to determine IC50 using GraphPad PRISM ver. 6.0.

[6] = system: HeLa cells; assay: Cellular uptake efficiency by flow cytometry; type: cell-based; conditions: for Uptake (% rel.): HeLa cells, 5 μM, 2 h, relative to CPP9 (100%)
Experimental: (§2) Cellular Uptake Efficiency: HeLa cells were seeded into 12-well cell-culture treated plates at a final density of 15×10^4 cells/well in DMEM supplemented with 10% FBS and 1% penicillin/streptomycin and incubated overnight at 37° ° C. and 5% CO2. After 24 h, the media was aspirated followed by washing the cells three times with warm DPBS. Peptides were diluted to a final concentration of 5 μM in DMEM containing 10% FBS with 1% penicillin/streptomycin, added to each well and then incubated for 2 h at 37° C. and 5% CO2. After 2 h, treatment media was aspirated and the cells were washed three times with ice-cold DPBS. Cells were removed from the plate via treatment with trypsin/EDTA and then harvested in ice-cold DPBS followed by centrifugation at ×300 RCF, 4° C. for 5 min. Cells were resuspended in DPBS and quantified using a BD Biosciences LSR II flow cytometer and gated using FlowJo. Values for uptake are provided as a percentage relative to positive control, CPP9 ([cyclo-fΦRrRrQ]-miniPEG-K[NF]).
as §2, with “Cellular Uptake. HeLa cells” for “Cellular Uptake Efficiency: HeLa cells”, “at 37° C. and” for “at 37° ° C. and”, “37° C. with 5% CO2.” for “37° C. and 5% CO2.”, “centrifugation at 300 g, 4° C.” for “centrifugation at ×300 RCF, 4° C.”, “control, CPP9 ([cyclo-fΦRrRrQ]-miniPEG-K[NF]), which has a 62% cytosolic entry efficiency. PGD97 entered HeLa cells at 60% efficiency relative to CPP9, corresponding to an absolute cytosolic entry efficiency of ˜36% (FIG. 9).” for “control, CPP9 ([cyclo-fΦRrRrQ]-miniPEG-K[NF]).”

[7] = Preliminary tests of cellular activity; type: cell-based; conditions: 50 nM concentration
[8] = system: HCT116 cell spheroids; assay: Intracellular stability by MALDI imaging; type: in vitro ADME; conditions: after 4 or 24 h incubation with PGD97
Experimental: Intracellular Stability. PGD97 ([…]) was added to HCT116 cell spheroids in RPMI-1640 medium supplemented with 10% FBS and 1% penicillin/streptomycin and incubated for 4 or 24 h. After incubation, spheroids were washed 3× with DPBS, quickly frozen, embedded in a solid support, and cryo-sectioned. Prior to analysis, sinapinic acid was sublimed onto individual slides. The sample was imaged using a Bruker ultrafleXtreme MALDI-TOF-TOF and analyzed for the presence of proteolytic degradation fragments. Heatmaps, scaled relative to the most intense signal, were generated for the intact peptide (both 29 and 32) as well as ˜20 potential proteolytic fragments at each time point. […] A degradation fragment (#1) corresponding to proteolytic cleavage between Thr and Arg (FIG. 8B) was observed, but none of the other potential degradation products were observed. […] Most importantly, significant concentrations of intact peptide 29 was still present inside the cells after 24 h.

[9] = system: LC3-II; assay: Autophagy in macrophages, western blotting for LC3-II; type: cell-based, human; conditions: 10 μM, ΔF508 CFTR macrophages
Experimental: Effect on Autophagy in Macrophage. Human primary ΔF508 CFTR macrophages were incubated with 10 μM VX809 (n=1) or 100 nM PGD97 (n=2) for 48 h in complete growth medium supplemented with 10% FBS and 1% penicillin/streptomycin at 37° C. Induction of autophagy was determined via western blotting for autophagy-associated protein LC3-II.

[10] = HCT116 cell spheroids in RPMI-1640 medium supplemented with 10% FBS and 1% penicillin/streptomycin; conditions: up to 24 h
[11] = system: HeLa cells; conditions: positive control value; cited from earlier work
[12] = 50 nM FITC-labeled peptide, FP, read-out: KD (nM) CALP
[13] = 50 nM FITC-labeled peptide, FP, read-out: KD (nM) N1P1
[14] = Condition B (superscript b): 100 nM probe FAM-[…]-OH
[15] = Condition B (superscript b): 100 nM probe FAM-ANSRWPTSII-OH
[16] = FITC-labeled peptide, FP, read-out: Affinity (KD)

Compound: CC(=O)N[C@@H](CS)C(=O)N[C@H](CCCNC(=N)N)C(=O)N[C@@H](CCCNC(=N)N)C(=O)N[C@@H](CCCNC(=N)N)C(=O)N[C@@H](Cc1ccc2ccccc2c1)C(=O)N[C@@H](Cc1c[nH]c2ccccc12)C(=O)N[C@@H](CCC(N)=O)C(=O)N[C@H](C(=O)N[C@H](C(=O)N[C@@H](CCCNC(=N)N)C(=O)N[C@H](C(=O)O)C(C)(C)C)[C@@H](C)O)C(C)(C)S [Compound 20, Ac-Cys-(D-Arg)-Arg-Arg-(2-Nal)-Trp-Gln-Pen-Thr-Arg-Tle-OH] (Ac-C[dR]RR[2Nal]WQ[Pen]TR[Tle]-OH)
- Kd [1, 12]: 110 nM
- Kd ([1]; FITC-labeled peptide 20, FP, read-out: KD for CAL PDZ domain (FIG. 3A)): ~50 nM
- Kd [2]: 2980 ± 150 nM
- Kd [3, 13]: 1640 ± 150 nM
- Kd [4]: 4970 ± 890 nM
- IC50 [5, 14]: 165 nM
- Uptake (% rel.) [6]: 28 ± 1%

Compound: CC(=O)N[C@@H](CS)C(=O)N[C@H](CCCNC(=N)N)C(=O)N[C@H](CCCNC(=N)N)C(=O)N[C@@H](CCCNC(=N)N)C(=O)N[C@@H](Cc1ccc2ccccc2c1)C(=O)N[C@@H](Cc1c[nH]c2ccccc12)C(=O)N[C@@H](CCC(N)=O)C(=O)N[C@H](C(=O)N[C@H](C(=O)N[C@@H](CCCNC(=N)N)C(=O)N[C@H](C(=O)O)C(C)(C)C)[C@@H](C)O)C(C)(C)S [Compound 21, Ac-Cys-(D-Arg)-(D-Arg)-Arg-(2-Nal)-Trp-Gln-Pen-Thr-Arg-Tle-OH] (Ac-C[dR][dR]R[2Nal]WQ[Pen]TR[Tle]-OH)
- IC50 [5, 15]: 270 nM
- Uptake (% rel.) [6]: 23 ± 4%

Compound: CC(=O)N[C@@H](CS)C(=O)N[C@H](CCCNC(=N)N)C(=O)N[C@@H](CCCNC(=N)N)C(=O)N[C@@H](CCCNC(=N)N)C(=O)N[C@@H](Cc1ccc2ccccc2c1)C(=O)N[C@@H](Cc1c[nH]c2ccccc12)C(=O)N[C@H](C(=O)N[C@H](C(=O)N[C@H](C(=O)N[C@@H](CCCNC(=N)N)C(=O)N[C@H](C(=O)O)C(C)(C)C)[C@@H](C)O)C(C)(C)C)C(C)(C)S [Compound 24, Ac-Cys-(D-Arg)-Arg-Arg-(2-Nal)-Trp-Pen-Tle-Thr-Arg-Tle-OH] (Ac-C[dR]RR[2Nal]W[Pen][Tle]TR[Tle]-OH)
- IC50 [5, 15]: 380 nM
- decrease of CAL binding ([5]; relative to peptide 22): ~2 fold
- Uptake (% rel.) [6]: 92%
- cell-permeability, fold higher ([6]; relative to peptide 22): 4 fold

Compound: CC(=O)N[C@@H](CS)C(=O)N[C@H](CCCNC(=N)N)C(=O)N[C@@H](CCCNC(=N)N)C(=O)N[C@@H](CCCNC(=N)N)C(=O)N[C@@H](Cc1ccc2ccccc2c1)C(=O)N[C@@H](Cc1csc2ccccc12)C(=O)N[C@H](C(=O)N[C@H](C(=O)N[C@H](C(=O)N[C@@H](CCCNC(=N)N)C(=O)N[C@H](C(=O)O)C(C)(C)C)[C@@H](C)O)C(C)(C)C)C(C)(C)S [Compound 25, Ac-Cys-(D-Arg)-Arg-Arg-(2-Nal)-(Bta)-Pen-Tle-Thr-Arg-Tle-OH] (Ac-C[dR]RR[2Nal][Bta][Pen][Tle]TR[Tle]-OH)
- IC50 [5, 14]: 235 nM
- potency in CAL binding, fold more potent ([5]; relative to peptide 24): 1.5 fold
- cellular activity [7]: robust cellular activity
- improvement in cell-permeability ([6]; Bta for Trp at P-5, relative to peptide 24): > 5 fold
- Uptake (% rel.) [6]: 518 ± 74%
- cell-permeability, fold better ([6]; relative to CPP9): 5 fold
- cell-permeability, fold better ([6]; relative to peptide 20): ~20 fold

Compound: CC(=O)N[C@@H](CS)C(=O)N[C@H](CCCNC(=N)N)C(=O)N[C@@H](CCCNC(=N)N)C(=O)N[C@@H](CCCNC(=N)N)C(=O)N[C@@H](Cc1ccc2ccccc2c1)C(=O)N[C@@H](Cc1csc2ccccc12)C(=O)N1CCCC[C@H]1C(=O)N[C@H](C(=O)N[C@H](C(=O)N[C@@H](CCCNC(=N)N)C(=O)N[C@H](C(=O)O)C(C)(C)C)[C@@H](C)O)C(C)(C)S [Compound 29, Ac-Cys-(D-Arg)-Arg-Arg-Nal-Bta-Pip-Pen-Thr-Arg-Tle-OH] (Ac-C[dR]RR[2Nal][Bta][Pip][Pen]TR[Tle]-OH)
- Kd [1, 12]: 6 ± 3 nM
- Kd [1, 16]: 6 nM
- improvement of CAL PDZ-binding affinity ([1]; Pip for Pro): ~15 fold
- selectivity for CAL vs NHERF PDZ domains ([1]; ratio of KD values, NHERF1/2 PDZ domains vs CAL PDZ): ≥ 130 fold
- Kd ([3]; range over N1P1, N2P1 and N2P2, read-out: KD values for NHERF1/2 PDZ domains): 780 to 7480 nM
- presence of intact peptide in spheroids [8]: High concentrations

Compound: C[C@@H](O)[C@H](NC(=O)[C@@H](NC(=O)[C@@H]1CCCCN1C(=O)[C@H](Cc1csc2ccccc12)NC(=O)[C@H](Cc1ccc2ccccc2c1)NC(=O)[C@H](CCCNC(=N)N)NC(=O)[C@H](CCCNC(=N)N)NC(=O)[C@@H](CCCNC(=N)N)NC(=O)[C@H](CS)NC(=O)COCCOCCNC(=S)Nc1ccc(C2c3ccc(O)cc3Oc3cc(O)ccc32)c(C(=O)O)c1)C(C)(C)S)C(=O)N[C@@H](CCCNC(=N)N)C(=O)N[C@H](C(=O)O)C(C)(C)C [Compound 29-FITC, FITC-miniPEG-Cys-(D-Arg)-Arg-Arg-Nal-Bta-Pip-Pen-Thr-Arg-Tle-OH] ({X1-AEEA}-C[dR]RR[2Nal][Bta][Pip][Pen]TR[Tle]-OH)
- Kd [1, 12]: 6 ± 3 nM
- Kd [1, 16]: 6 ± 3 nM
- Kd [2]: 1370 ± 380 nM
- Kd [3, 13]: 780 ± 10 nM
- Kd [4]: 7480 ± 580 nM

Compound: CC(C)(CO)c1cc2cc(NC(=O)C3(c4ccc5c(c4)OC(F)(F)O5)CC3)c(F)cc2n1C[C@@H](O)CO [VX661, Tezacaftor, reference compound]
- LC3-II protein levels [9]: also effective

Compound: Ac-Cys-(D-Arg)-Arg-Arg-Nal-Bta-Pip-Pen-Thr-Arg-Tle-OH
- cleaved bond [10]: Thr-Arg

Compound: [cyclo-fΦRrRrQ]-miniPEG-K[NF] [CPP9]
- cytosolic entry efficiency [11]: 62%
